Test results from the NIST ThermoML archive (doi:10.1021/je200030k).
Numbers after ± are expanded uncertainties.

Columns and labels:
[1] = xn = mol fraction of the nth substance listed; conditions: 101 kPa, Liquid, Vibrating tube method
[2] = refractive index (Na D-line) (dimensionless); xn = mol fraction of the nth substance listed; conditions: 101 kPa, Liquid, Standard Abbe refractometry

CCCCn1cc[n+](C)c1.NCC(=O)[O-] [1-butyl-3-methylimidazolium glycinate] + CC(C)O
Conditions | mass density, [1] [kg/m3] | refractive index, [2]
298.15 K, x1 = 0.0965 | 877.6 ± 1 | 1.405 ± 0.002
298.15 K, x1 = 0.1992 | 957.8 ± 1 | 1.43 ± 0.002
298.15 K, x1 = 0.3059 | 1024.4 ± 1 | 1.451 ± 0.002
298.15 K, x1 = 0.3977 | 1071.9 ± 1 | 1.466 ± 0.002
298.15 K, x1 = 0.5115 | 1121.6 ± 1 | 1.48 ± 0.002
298.15 K, x1 = 0.5868 | 1149.9 ± 1 | 1.488 ± 0.002
298.15 K, x1 = 0.7052 | 1188.4 ± 1 | 1.499 ± 0.002
298.15 K, x1 = 0.8117 | 1217.5 ± 1.1 | 1.509 ± 0.002
298.15 K, x1 = 0.8775 | – | 1.514 ± 0.002
303.15 K, x1 = 0.0965 | 870.7 ± 1 | 1.404 ± 0.002
303.15 K, x1 = 0.1992 | 951.4 ± 1 | 1.429 ± 0.002
303.15 K, x1 = 0.3059 | 1018.6 ± 1 | 1.45 ± 0.002
303.15 K, x1 = 0.3977 | 1066.5 ± 1 | 1.464 ± 0.002
303.15 K, x1 = 0.5115 | 1116.8 ± 1 | 1.478 ± 0.002
303.15 K, x1 = 0.5868 | 1145.4 ± 1 | 1.487 ± 0.002
303.15 K, x1 = 0.7052 | 1184.3 ± 1 | 1.499 ± 0.002
303.15 K, x1 = 0.8117 | 1213.9 ± 1.1 | 1.508 ± 0.002
303.15 K, x1 = 0.8775 | – | 1.513 ± 0.002
308.15 K, x1 = 0.0965 | 863 ± 1 | 1.403 ± 0.002
308.15 K, x1 = 0.1992 | 944.2 ± 1 | 1.429 ± 0.002
308.15 K, x1 = 0.3059 | 1012 ± 1 | 1.449 ± 0.002
308.15 K, x1 = 0.3977 | 1060.6 ± 1 | 1.463 ± 0.002
308.15 K, x1 = 0.5115 | 1111.4 ± 1 | 1.477 ± 0.002
308.15 K, x1 = 0.5868 | 1140.5 ± 1 | 1.486 ± 0.002
308.15 K, x1 = 0.7052 | 1180 ± 1 | 1.497 ± 0.002
308.15 K, x1 = 0.8117 | 1210 ± 1.1 | 1.505 ± 0.002
308.15 K, x1 = 0.8775 | 1226.4 ± 1.1 | 1.51 ± 0.002
313.15 K, x1 = 0.0965 | 854.7 ± 1 | 1.402 ± 0.002
313.15 K, x1 = 0.1992 | 936.6 ± 1 | 1.427 ± 0.002
313.15 K, x1 = 0.3059 | 1005 ± 1 | 1.449 ± 0.002
313.15 K, x1 = 0.3977 | 1054.1 ± 1 | 1.462 ± 0.002
313.15 K, x1 = 0.5115 | 1105.8 ± 1 | 1.477 ± 0.002
313.15 K, x1 = 0.5868 | 1135.3 ± 1 | 1.485 ± 0.002
313.15 K, x1 = 0.7052 | 1175.4 ± 1 | 1.497 ± 0.002
313.15 K, x1 = 0.8117 | 1205.9 ± 1.1 | 1.506 ± 0.002
313.15 K, x1 = 0.8775 | – | 1.511 ± 0.002

CCCCn1cc[n+](C)c1.NCC(=O)[O-] [1-butyl-3-methylimidazolium glycinate] + CCCCO
Conditions | mass density, [1] [kg/m3] | refractive index, [2]
298.15 K, x1 = 0.0972 | 885.2 ± 1 | 1.418 ± 0.002
298.15 K, x1 = 0.2125 | 962.5 ± 1 | 1.438 ± 0.002
298.15 K, x1 = 0.3041 | 1014.1 ± 1 | 1.454 ± 0.002
298.15 K, x1 = 0.3849 | 1054.3 ± 1 | 1.465 ± 0.002
298.15 K, x1 = 0.4929 | 1101.4 ± 1 | 1.478 ± 0.002
298.15 K, x1 = 0.6103 | 1146.3 ± 1 | 1.49 ± 0.002
298.15 K, x1 = 0.6923 | 1174.2 ± 1 | 1.497 ± 0.002
298.15 K, x1 = 0.8037 | 1208.4 ± 1.1 | 1.506 ± 0.002
298.15 K, x1 = 0.9129 | – | 1.514 ± 0.002
303.15 K, x1 = 0.0972 | 881.7 ± 1 | 1.417 ± 0.002
303.15 K, x1 = 0.2125 | 959.1 ± 1 | 1.438 ± 0.002
303.15 K, x1 = 0.3041 | 1010.9 ± 1 | 1.452 ± 0.002
303.15 K, x1 = 0.3849 | 1051.2 ± 1 | 1.463 ± 0.002
303.15 K, x1 = 0.4929 | 1098.4 ± 1 | 1.476 ± 0.002
303.15 K, x1 = 0.6103 | 1143.3 ± 1 | 1.488 ± 0.002
303.15 K, x1 = 0.6923 | 1171.2 ± 1 | 1.496 ± 0.002
303.15 K, x1 = 0.8037 | 1205.4 ± 1.1 | 1.505 ± 0.002
303.15 K, x1 = 0.9129 | – | 1.513 ± 0.002
308.15 K, x1 = 0.0972 | 878 ± 1 | 1.415 ± 0.002
308.15 K, x1 = 0.2125 | 955 ± 1 | 1.437 ± 0.002
308.15 K, x1 = 0.3041 | 1007 ± 1 | 1.45 ± 0.002
308.15 K, x1 = 0.3849 | 1048 ± 1 | 1.461 ± 0.002
308.15 K, x1 = 0.4929 | 1095 ± 1 | 1.474 ± 0.002
308.15 K, x1 = 0.6103 | 1140 ± 1 | 1.487 ± 0.002
308.15 K, x1 = 0.6923 | 1168 ± 1 | 1.495 ± 0.002
308.15 K, x1 = 0.8037 | 1202 ± 1 | 1.504 ± 0.002
308.15 K, x1 = 0.9129 | 1232 ± 1 | 1.512 ± 0.002
313.15 K, x1 = 0.0972 | 874 ± 1 | 1.413 ± 0.002
313.15 K, x1 = 0.2125 | 952 ± 1 | 1.435 ± 0.002
313.15 K, x1 = 0.3041 | 1004 ± 1 | 1.45 ± 0.002
313.15 K, x1 = 0.3849 | 1044 ± 1 | 1.461 ± 0.002
313.15 K, x1 = 0.4929 | 1092 ± 1 | 1.474 ± 0.002
313.15 K, x1 = 0.6103 | 1137 ± 1 | 1.486 ± 0.002
313.15 K, x1 = 0.6923 | 1165 ± 1 | 1.495 ± 0.002
313.15 K, x1 = 0.8037 | 1199 ± 1 | 1.503 ± 0.002
313.15 K, x1 = 0.9129 | – | 1.51 ± 0.002
